# In patent US4486434A, “Histamine H1 -antagonists” (Smith Kline & French Laboratories Limited, priority 1981, dated 1984):
# Test: rat whole body radiography
# Type: in vivo
# From the text: This has been shown by rat whole body radiography.
smiles,measurement,value
"Cc1ccc(Cc2cnc(NCCCCc3ncc(Br)cc3C)[nH]c2=O)cn1 [Example 1, 2-[4-(5-bromo-3-methylpyrid-2-yl)-butylamino]-5-(6-methylpyrid-3-yl-methyl)-4-pyrimidone]",entry into the central nervous system,does not enter the central nervous system
